Experimental findings from US7166310B2, “Stable extract from Hypericum perforatum L., method for the production thereof and its use as a topical medicament” (Dr. Willmar Schwabe GmbH & Co., priority 2000, dated 2007) are described below.

The test system of series [1] is myelo-peroxidase (MPO), neutrophile granulocyte accumulation. As to the kind of experiment: Oleum Crotonis-ear-oedema model, myelo-peroxidase in ear homogenates. The class given is in vivo. As to conditions: 250 μg topically on the ear, mice, 6 hours. The method, then: (§1) The anti-phlogistic effects of hypericum extract according to the invention, also those of isolated ingredients, were tested in the Oleum Crotonis-ear-oedema model on male NRMI mice. After inducing a narcosis by the intra-peritonal injection of 60 mg/kg sodium-pento-barbital, the test substances were applied to the right ear in 10 μl acetone, whereas the left ear was treated with 10 μl acetone alone, as a control. 30 mins later, a local inflammation was triggered at the left ear by applying 50 μg Oleum Crotonis in 10 μl acetone. After 6 hours, the animals were sacrificed and inhibition of the inflammation reaction was quantified by weighing a sample of tissue drawn from both ears, using the following formula: [1−(GT/GL]×100; in the case of GT or GL, this deals with the difference in weight between the right and left ears of animals that have been treated with the test substance (GT), or only with the solvent (GL).
Inhibition of neutrophile granulocyte accumulations in inflamed tissue was obtained by determining myelo-peroxidase (MPO) in the ear homogenates. To this end, biopsy samples were recorded in 1 ml hexadecyl-trimethyl ammonium bromide (HTAB) buffers, homogenised with a glass homogeniser at 4° C. and then given ultrasound treatment for 10 seconds in a sonicator. After centrifuging at 4° C. with 3000 g for 10 mins, the supernatant was removed and retained for analysing at −70° C. Determining the MPO was performed in micro-titre dishes after adding H2O2 and the O-dianisidine-dihydrochloride indicator as a kinetic measure, over a period of 5 mins at 450 nm. Assessment was carried out against a standard curve with horseradish peroxidase, and was obtained as an mU enzyme activity per mg of tissue.
(§2) The results of the investigations after applying 250 μg of the test substance or 1000 μg of the extract according to the invention to the left ear in each case are summarised in the following table.

Series [2] has as its system human keratinocytes (HaCaT cells). As to the kind of experiment: Proliferation of human keratinocytes, 3H methyl-thymidine incorporation. It is filed as cell-based. The conditions noted are these: for inhibition at 10 µg/mL: Homo sapiens, HaCaT, read-out: Inhibition (proliferation of HaCaT cells). On the procedure:
The effects of the extracts according to the invention and various ingredients on the proliferation of human keratinocytes were obtained by using the HaCaT cell-line. The cells (10,000–15,000) were disseminated in 200 μl DMEM with 5% foetal calf serum in 96-well F-form micro-titre dishes and incubated at 37° C. at absence of test substances in an incubator. Cell proliferation was determined by measuring the incorporation of ^3H methyl-thymidine (0.5 μCi/well) over the last 6 hours in the culture.

Another series concerns the target T1, 5α reductase (Homo sapiens, UniProt P18405).
T1 construct: carried out on cells of the human prostate-cancer cell-line DU145; endogenous in cells; host or cells: DU145 (human prostate cancer cell line)
T1 sequence (P18405 1-259): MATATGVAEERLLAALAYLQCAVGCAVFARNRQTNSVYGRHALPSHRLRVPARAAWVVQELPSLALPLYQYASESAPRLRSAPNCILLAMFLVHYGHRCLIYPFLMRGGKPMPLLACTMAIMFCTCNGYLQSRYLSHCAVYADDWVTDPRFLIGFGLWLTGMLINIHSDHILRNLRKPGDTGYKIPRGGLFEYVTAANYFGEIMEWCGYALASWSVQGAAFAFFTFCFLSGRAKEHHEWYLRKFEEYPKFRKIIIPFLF
Description: Inhibition of 5α reductase in DU145 cells. The class given is cell-based.

For series [3], the system named is Oleum Crotonis-ear-oedema. As to the kind of experiment: Oleum Crotonis-ear-oedema model, ear weight. It is filed as in vivo. The conditions noted are these: 250 μg topically on the ear, mice, 6 hours. The method, then:
as §1, §2

The subject of the next series is verocells. Description: Cyto-toxicity on verocells, MTT test. It is filed as cell-based, ape. The conditions noted are these: 7 days. The method, then: Various concentrations of the extract according to the invention and hypericin were incubated in the incubator for 7 days to assess the cyto-toxic effect of verocells. Determining of cyto-toxicity was performed using an MTT test following a published procedure (Cinatl J. jr; Cinatl, J; Rabenau, H, Gümel, H; Doerr, H. W; (1993); “In-vitro anti-human immuno-deficiency virus activity of 2′, 3 dideoxynucleotides and their effect on clonal growth of hæmopoietic cells from human bone-marrow”, Arzneimittel-Frsch./Drug Res. 43, 622–625).
Assessment of the cyto-toxic concentration (TC50) and the virus-inhibiting concentration (IC50) was performed using linear regression. To calculate the therapeutic index, the formula TC50/IC50 was applied.

The test system of series [4] is Herpes simplex 1 strain of virus (HSV-1). As to the kind of experiment: HSV-1 "deactivation test" (virus titre on verocells). It is filed as cell-based. As to conditions: for virus titre: virus applied 1.5×10^7 TCID50.
Series [5] has the same test system. As to the kind of experiment: HSV-1 "inhibition test" (virostatic action in verocells). It is filed as cell-based. The conditions noted are these: Human alphaherpesvirus 1; HSV-1 3000 TCID50/ml, 48–72 hours.
Series [6] deals with Staphylococcus saprophyticus. As to the kind of experiment: MIC, micro-dilution method. The class given is cell-based. On the procedure: (§3) Anti-microbial effects against various gram-positive bacteria were determined using the micro-dilution method. In the table below, we show the minimum inhibition concentration (MIC) and the minimum bactericide concentration (MBC) in each case.
A general note: In broth dilution the organism is exposed to a series of concentrations in liquid medium.

The test system of a further series is Streptococcus pyogenes. Description: MIC, micro-dilution method. It is filed as cell-based. On the procedure: as §3
In a further series the test system is Listeria monocytogenes. Description: MIC, micro-dilution method. The class given is cell-based. On the procedure: as §3
A further series deals with Enterococcus durans. As to the kind of experiment: MIC, micro-dilution method. The class given is cell-based. The method, then:
as §3

Series [7] relates to Staphylococcus aureus (SA). Description: MIC, micro-dilution method. It is filed as cell-based. On the procedure:
as §3

The subject of another series is Enterococcus fæcalis. As to the kind of experiment: MIC, micro-dilution method. The class given is cell-based. The method, then:
as §3

In the next series the test system is Enterococcus fæcium. Description: MIC, micro-dilution method. The class given is cell-based. On the procedure:
as §3

The next series deals with DU145 cells. The conditions noted are these: some 30 μg/ml.
The next series deals with Methicillin-resistant SA. The class given is cell-based, Staphylococcus aureus. The method, then:
as §3

Where [8] appears, read: DU-145, 30 μg/ml, DU145 cells, 18 hours, read-out: Inhibition of 5α reductase.
Where [9] appears, read: DU-145, read-out: Inhibition of 5α reductase.

For orientation: IC50 means the concentration needed to halve the response being measured. A word on the MIC: it is the least concentration at which growth counts as inhibited. A lower MIC goes with inhibition by little substance.

Converted amounts (≈) assume the structure as drawn. Where two headings read alike, the source gives them in different places.

In turn, `O=c1c(O[C@@H]2O[C@H](CO)[C@H](O)[C@H](O)[C@H]2O)c(-c2ccc(O)c(O)c2)oc2cc(O)cc(O)c12` [Hyperoside] yielded an MPO inhibition in series [1] of 39%. Also, the inhibition at 10 µg/mL in series [2] (10 μg/ml) was -8%. Moreover, the inhibition at 30 µg/mL on 5α reductase (setting [8]) was -1%. Further, the Oedema inhibition in series [3] is recorded as −27%.
`C[C@@H]1O[C@@H](Oc2c(-c3ccc(O)c(O)c3)oc3cc(O)cc(O)c3c2=O)[C@H](O)[C@H](O)[C@H]1O` [Quercitrin]: the MPO inhibition in series [1] is recorded as 23%. Also, the inhibition at 10 µg/mL in series [2] came to 35%. Also, the inhibition at 30 µg/mL on 5α reductase (setting [9]) is -29%. Besides, in [3], the Oedema inhibition is reported as −26%.
Regarding `O=c1c(O[C@@H]2O[C@H](CO)[C@@H](O)[C@H](O)[C@H]2O)c(-c2ccc(O)c(O)c2)oc2cc(O)cc(O)c12` [Isoquercitrin], in series [1], the MPO inhibition was 73%. The inhibition at 10 µg/mL in series [2] (10 μg/ml) worked out at 83%. Further, the inhibition at 30 µg/mL at 5α reductase (setting [8]) was -5%. For the same molecule, the Oedema inhibition in series [3] was −29%.
In turn, `Cc1cc(O)c2c(=O)c3c(O)cc(O)c4c5c(O)cc(O)c6c(=O)c7c(O)cc(C)c8c1c2c(c34)c(c78)c65` [Hypericin] displayed an MPO inhibition in [1] of 48%. Moreover, the inhibition at 10 µg/mL in series [2] (10 μg/ml) amounted to 100%. Besides, the inhibition at 30 µg/mL at 5α reductase (setting [9]) was -24%. Besides, in series [3], the Oedema inhibition is 6%. Moreover, the TC50 in the series on verocells was determined as 74.3 µg/mL (≈ 147 µM). For the same molecule, the virus titre in series [4] (10 μg/ml) is 4.7 × 10^6 TCID50. In series [4] (100 μg/ml), the virus-deactivating action result is listed as “approx. 4 log10 stages” and the virus titre was 4.7 × 10^3 TCID50. For the same molecule, in series [5], the IC50 was 2.2 µg/mL (≈ 4.36 µM).
Regarding `C[C@@H]1O[C@@H](OC[C@H]2O[C@@H](Oc3c(-c4ccc(O)c(O)c4)oc4cc(O)cc(O)c4c3=O)[C@H](O)[C@@H](O)[C@@H]2O)[C@H](O)[C@H](O)[C@H]1O` [Rutin], in series [1], the MPO inhibition turned out to be 55%. Moreover, the inhibition at 10 µg/mL in series [2] (10 μg/ml) is 9%. Further, the inhibition at 30 µg/mL at 5α reductase (setting [8]) was -6%. Further, the Oedema inhibition in [3] is reported as 38%.
Regarding Camphor oil, the MPO inhibition in [1] amounted to 96%. Also, in [2] (10 μg/ml), the “Inhibition (proliferation of HaCaT cells)” value was 44%. In addition, the “Inhibition of 5α reductase” value at 5α reductase (30 μg/ml, DU145 cells, 18 hours) turned out to be 12%. Also, in series [3], the Oedema inhibition is 91%.
`O=c1c(O)c(-c2cc(O)c(O)c(O)c2)oc2cc(O)cc(O)c12` [Myricetin] displayed an MPO inhibition in series [1] of 75%. Also, the inhibition at 10 µg/mL in series [2] (10 μg/ml) worked out at 26%. The inhibition at 30 µg/mL at 5α reductase (setting [8]) stood at 29%. Also, the Oedema inhibition in [3] is 17%.
In series [1], `Oc1cc(O)c2c(c1)O[C@H](c1ccc(O)c(O)c1)[C@H](O)C2` [Epicatechol] had an MPO inhibition of 45%. Also, the inhibition at 10 µg/mL in [2] (10 μg/ml) stood at 13%. At 5α reductase (setting [8]), the inhibition at 30 µg/mL is -6%. Also, the Oedema inhibition in series [3] is on record as 1%.
With Hyperforin Na, in series [2] (10 μg/ml), the “Inhibition (proliferation of HaCaT cells)” value was 97%. Moreover, on 5α reductase (5 μg/ml, DU145 cells, 18 hours), the “Inhibition of 5α reductase” value is reported as 10%.
In [1], `O=c1cc(-c2ccc(O)c(O)c2)oc2cc(O)cc(O)c12` [Luteolin] registered an MPO inhibition of 91%. In series [2] (10 μg/ml), the inhibition at 10 µg/mL turned out to be 92%. In addition, the inhibition at 30 µg/mL on 5α reductase (setting [8]) was found to be 42%. The Oedema inhibition in series [3] stood at 70%.
Take `CC(C)=CCC[C@]1(C)[C@@H](CC=C(C)C)C[C@@]2(CC=C(C)C)C(=O)[C@]1(C(=O)C(C)C)C(=O)C(CC=C(C)C)=C2O` [Hyperforin]: the MIC in series [6] was 62.5 to 125 µg/mL; with Streptococcus pyogenes, 15.6 µg/mL (≈ 29.1 µM); in the series with Listeria monocytogenes it was 15.6 to 31.25 µg/mL; against Enterococcus durans, 125 µg/mL (≈ 233 µM); in series [7] it was 62.5 µg/mL (≈ 116 µM); against Enterococcus fæcalis it was 125 µg/mL (≈ 233 µM). Besides, the MIC was 125 to 250 µg/mL with Enterococcus fæcium and 31.25 µg/mL (≈ 58.2 µM) with Methicillin-resistant SA. Besides, the cyto-toxicity entry in the series with DU145 cells is reported as “cyto-toxic”. The MPO inhibition in series [1] amounted to 62%. The Oedema inhibition in [3] worked out at 65%.
As for `O=C(/C=C/c1ccc(O)c(O)c1)O[C@@H]1C[C@](O)(C(=O)O)C[C@@H](O)[C@H]1O` [Chlorogenic acid], in series [1], the MPO inhibition is recorded as 16%. The inhibition at 10 µg/mL in [2] (10 μg/ml) was -9%. For the same molecule, the inhibition at 30 µg/mL on 5α reductase (setting [8]) was 3%. Besides, in [3], the Oedema inhibition was 14%.
The like results for `O=c1c(O)c(-c2ccc(O)c(O)c2)oc2cc(O)cc(O)c12` [Quercetin] were, in that order, 97%, -29%, 46% and 82%.
For `O=c1cc(-c2ccc(O)c(-c3c(O)cc(O)c4c(=O)cc(-c5ccc(O)cc5)oc34)c2)oc2cc(O)cc(O)c12` [Amento-flavone] the same measures were 70%, 68%, -15% and 82%.
`Oc1ccccc1O` [Catechol] showed an MPO inhibition in series [1] of 41%. In series [2], the inhibition at 10 µg/mL came out at 14%. Further, the inhibition at 30 µg/mL at 5α reductase (setting [8]) is -15%. Further, the Oedema inhibition in series [3] is 36%.
